We go through 29 compounds from patent US12011506B2, “Combination and uses and treatments thereof” (priority 2017, dated 2024).

The first data set in a line: Established and other potentially significant drug interactions with JULUCA (effect on concentration). Type of data set: in vivo, human. To be noted: based on drug interaction trials or predicted interactions.
Excerpt: These recommendations are based on either drug interaction trials of individual components or predicted interactions due to the expected magnitude of interaction and potential for serious adverse events or loss of efficacy.
As to `CO[C@H]1/C=C/O[C@@]2(C)Oc3c(C)c(O)c4c(c3C2=O)C2=NC3(CCN(CC(C)C)CC3)NC2=C(NC(=O)/C(C)=C\C=C\[C@H](C)[C@H](O)[C@@H](C)[C@@H](O)[C@@H](C)[C@H](OC(C)=O)[C@@H]1C)C4=O` [Rifabutin], the “Effect on Concentration of the concomitant drug” value is “↔Rifabutin”. Same read-out and setting: under `CN(CCOc1ccc(NS(C)(=O)=O)cc1)CCc1ccc(NS(C)(=O)=O)cc1` [Dofetilide] stands “↑Dofetilide”; under `CCC(=O)C(CC(C)N(C)C)(c1ccccc1)c1ccccc1` (centres unmarked) [Methadone], “↓Methadone”.

The same data set, now with this note: concomitant drug with JULUCA; based on drug interaction trials or predicted interactions.
Regarding `CO[C@H]1/C=C/O[C@@]2(C)Oc3c(C)c(O)c4c(O)c(c(/C=N/N5CCN(C)CC5)c(O)c4c3C2=O)NC(=O)/C(C)=C\C=C\[C@H](C)[C@H](O)[C@@H](C)[C@@H](O)[C@@H](C)[C@H](OC(C)=O)[C@@H]1C` [Rifampin], the “Effect on Concentration of Rilpivirine” value is listed as “↓Rilpivirine”. For `CN/C(=N/CCSCc1nc[nH]c1C)NC#N` [Cimetidine], the “Effect on Concentration of Dolutegravir” value is “↔Dolutegravir” and the “Effect on Concentration of Rilpivirine” value was “↓Rilpivirine”. As for `COCCCOc1ccnc(C[S+]([O-])c2nc3ccccc3[nH]2)c1C` (centres unmarked) [Rabeprazole], the “Effect on Concentration of Rilpivirine” value was “↓Rilpivirine”.

As to `CCC1(c2ccccc2)C(=O)NC(=O)NC1=O` [Phenobarbital], the “Effect on Concentration of Rilpivirine” value was “↓Rilpivirine”. `CC[C@H]1OC(=O)[C@H](C)C(=O)[C@H](C)[C@@H](O[C@@H]2O[C@H](C)C[C@H](N(C)C)[C@H]2O)[C@](C)(OC)C[C@@H](C)C(=O)[C@H](C)[C@H]2N(CCCCn3cnc(-c4cccnc4)c3)C(=O)O[C@]12C` [Telithromycin]: the “Effect on Concentration of Dolutegravir” value was “↔Dolutegravir” and the “Effect on Concentration of Rilpivirine” value was “↑Rilpivirine”. Taken in the same sequence, the figures for `CO[C@H]1/C=C/O[C@@]2(C)Oc3c(C)c(O)c4c(c3C2=O)C2=NC3(CCN(CC(C)C)CC3)NC2=C(NC(=O)/C(C)=C\C=C\[C@H](C)[C@H](O)[C@@H](C)[C@@H](O)[C@@H](C)[C@H](OC(C)=O)[C@@H]1C)C4=O` [Rifabutin] were “↔Dolutegravir” and “↓Rilpivirine”. For `CC[C@H]1OC(=O)[C@H](C)[C@@H](O[C@H]2C[C@@](C)(OC)[C@@H](O)[C@H](C)O2)[C@H](C)[C@@H](O[C@@H]2O[C@H](C)C[C@H](N(C)C)[C@H]2O)[C@](C)(OC)C[C@@H](C)C(=O)[C@H](C)[C@@H](O)[C@]1(C)O` [Clarithromycin], the “Effect on Concentration of Dolutegravir” value is “↔Dolutegravir” and the “Effect on Concentration of Rilpivirine” value was “↑Rilpivirine”. Taken in the same sequence, the figures for `CNC(=C[N+](=O)[O-])NCCSCc1ccc(CN(C)C)o1` [Ranitidine] were “↔Dolutegravir” and “↓Rilpivirine”. In the case of `Cc1c(OCC(F)(F)F)ccnc1C[S+]([O-])c1nc2ccccc2[nH]1` (centres unmarked) [Lansoprazole], the “Effect on Concentration of Rilpivirine” value was “↓Rilpivirine”. The same measure, in the same setting: the result for `NC(=O)N1c2ccccc2C=Cc2ccccc21` [Carbamazepine] reads “↓Rilpivirine”; that for `COc1ccnc(C[S+]([O-])c2nc3ccc(OC(F)F)cc3[nH]2)c1OC` (centres unmarked) [Pantoprazole], “↓Rilpivirine”; that for `CO[C@H]1/C=C/O[C@@]2(C)Oc3c(C)c(O)c4c(O)c(c(/C=N/N5CCN(C6CCCC6)CC5)c(O)c4c3C2=O)NC(=O)/C(C)=C\C=C\[C@H](C)[C@H](O)[C@@H](C)[C@@H](O)[C@@H](C)[C@H](OC(C)=O)[C@@H]1C` [Rifapentine], “↓Rilpivirine”.

`CC[C@H]1OC(=O)[C@H](C)[C@@H](O[C@H]2C[C@@](C)(OC)[C@@H](O)[C@H](C)O2)[C@H](C)[C@@H](O[C@@H]2O[C@H](C)C[C@H](N(C)C)[C@H]2O)[C@](C)(O)C[C@@H](C)C(=O)[C@H](C)[C@@H](O)[C@]1(C)O` [Erythromycin]: the “Effect on Concentration of Dolutegravir” value is given as “↔Dolutegravir” and the “Effect on Concentration of Rilpivirine” value was “↑Rilpivirine”. Taken in the same sequence, the figures for `CNC(=C[N+](=O)[O-])NCCSCc1csc(CN(C)C)n1` [Nizatidine] were “↔Dolutegravir” and “↓Rilpivirine”.

Regarding `COc1ccc2nc([S@@+]([O-])Cc3ncc(C)c(OC)c3C)[nH]c2c1` [Esomeprazole], the “Effect on Concentration of Rilpivirine” value was “↓Rilpivirine”.

As to `C[C@@H]1C[C@H]2[C@@H]3CCC4=CC(=O)C=C[C@]4(C)[C@@]3(F)[C@@H](O)C[C@]2(C)[C@@]1(O)C(=O)CO` [Dexamethasone], the “Effect on Concentration of Rilpivirine” value was “↓Rilpivirine”. `CCC(=O)C(CC(C)N(C)C)(c1ccccc1)c1ccccc1` (centres unmarked) [Methadone]: the “Effect on Concentration of Dolutegravir” value is listed as “↔Dolutegravir” and the “Effect on Concentration of Rilpivirine” value is reported as “↔Rilpivirine”. `O=C1NC(=O)C(c2ccccc2)(c2ccccc2)N1` [Phenytoin]: the “Effect on Concentration of Rilpivirine” value is “↓Rilpivirine”. In the case of `NC(N)=Nc1nc(CSCCC(N)=NS(N)(=O)=O)cs1` [Famotidine], the “Effect on Concentration of Dolutegravir” value is “↔Dolutegravir” and the “Effect on Concentration of Rilpivirine” value is on record as “↓Rilpivirine”. Sucralfate: the “Effect on Concentration of Dolutegravir” value is reported as “↓Dolutegravir”. In the case of `NC(=O)N1c2ccccc2CC(=O)c2ccccc21` [Oxcarbazepine], the “Effect on Concentration of Rilpivirine” value is recorded as “↓Rilpivirine”.

The next data set can be described thus: Drug interaction trials: effect of rilpivirine on pharmacokinetics of coadministered drugs. The note with it: No Effect = 1.00.
On to `CO[C@H]1/C=C/O[C@@]2(C)Oc3c(C)c(O)c4c(O)c(c(/C=N/N5CCN(C)CC5)c(O)c4c3C2=O)NC(=O)/C(C)=C\C=C\[C@H](C)[C@H](O)[C@@H](C)[C@@H](O)[C@@H](C)[C@H](O)[C@@H]1C` [25-desacetylrifampin], for which the “AUC of coadministered drug, geometric mean ratio with/without EDURANT” value is recorded as 0.91 and the “Cmax of coadministered drug, geometric mean ratio with/without EDURANT” value (shortened to “Cmax … geometric mean ratio with/without EDURANT”) is on record as 1.00. Consider `COc1ccc2c(O[C@@H]3C[C@H]4C(=O)N[C@]5(C(=O)NS(=O)(=O)C6CC6)C[C@H]5/C=C\CCCCN(C)C(=O)[C@@H]4C3)cc(-c3nc(C(C)C)cs3)nc2c1C` [Simeprevir], for which the “AUC of coadministered drug, geometric mean ratio with/without EDURANT” value is recorded as 1.06; the “Cmax … geometric mean ratio with/without EDURANT” value is given as 1.10; the “Cmin of coadministered drug, geometric mean ratio with/without EDURANT” value was 0.96. In the same order, the values of `CC(C)c1c(C(=O)Nc2ccccc2O)c(-c2ccccc2)c(-c2ccc(F)cc2)n1CCC(O)CC(O)CC(=O)O` (centres unmarked) [2-hydroxy-atorvastatin] are 1.39, 1.58 and 1.32.

`CC(=O)N1CCN(c2ccc(OCC3COC(Cn4ccnc4)(c4ccc(Cl)cc4Cl)O3)cc2)CC1` (centres unmarked) [Ketoconazole]: the “AUC of coadministered drug, geometric mean ratio with/without EDURANT” value amounted to 0.76; the “Cmax … geometric mean ratio with/without EDURANT” value worked out at 0.85; the “Cmin of coadministered drug, geometric mean ratio with/without EDURANT” value was determined as 0.34. As to `CC(C)c1c(C(=O)Nc2ccc(O)cc2)c(-c2ccccc2)c(-c2ccc(F)cc2)n1CC[C@@H](O)C[C@@H](O)CC(=O)O` [4-hydroxy-atorvastatin], the “AUC of coadministered drug, geometric mean ratio with/without EDURANT” value is 1.23 and the “Cmax … geometric mean ratio with/without EDURANT” value turned out to be 1.28. Take `CCCc1nn(C)c2c(=O)[nH]c(-c3cc(S(=O)(=O)N4CCNCC4)ccc3OCC)nc12` [N-desmethyl-sildenafil]: the “Cmax … geometric mean ratio with/without EDURANT” value is on record as 0.90. With `C[C@H]1O[C@@H](O[C@H]2[C@@H](O)C[C@H](O[C@H]3[C@@H](O)C[C@H](O[C@H]4CC[C@@]5(C)[C@H](CC[C@@H]6[C@@H]5C[C@@H](O)[C@]5(C)[C@@H](C7=CC(=O)OC7)CC[C@]65O)C4)O[C@@H]3C)O[C@@H]2C)C[C@H](O)[C@@H]1O` [Digoxin], the “Cmax … geometric mean ratio with/without EDURANT” value is 1.06.

Staying with this data set, now noted: No Effect = 1.00; footnote c.
With `CCCc1nn(C)c2c(=O)[nH]c(-c3cc(S(=O)(=O)N4CCNCC4)ccc3OCC)nc12` [N-desmethyl-sildenafil], the “AUC(0-last) of coadministered drug, geometric mean ratio with/without EDURANT” value worked out at 0.92. With `C[C@H]1O[C@@H](O[C@H]2[C@@H](O)C[C@H](O[C@H]3[C@@H](O)C[C@H](O[C@H]4CC[C@@]5(C)[C@H](CC[C@@H]6[C@@H]5C[C@@H](O)[C@]5(C)[C@@H](C7=CC(=O)OC7)CC[C@]65O)C4)O[C@@H]3C)O[C@@H]2C)C[C@H](O)[C@@H]1O` [Digoxin], the “AUC(0-last) of coadministered drug, geometric mean ratio with/without EDURANT” value is recorded as 0.98.
